pIC50: −log10 of the molar value. “And” between values parts separate entries of the source, which are not always exact repeats. Identical values can stand only once.
System: KRAS patient-derived spheroids with HUVEC/MSC, viability
Test: Anticancer human tumor 323965-272-R-J2-PDC patient-derived pancreatic carcinoma cell line growth inhibition [KRAS2]
Settings: for viability, T/C: stronger effect = lower value
Outline: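 Combination screen of spheroid viability in tumor-cell co-cultures with endothelial (HUVEC) and mesenchymal stem cell stroma. Each agent was tested in half-log dilutions, topping at clinical Cmax or at 10 microM without a known Cmax.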

[1] = curve of first compound, second compound 0.1 µM
[2] = curve of first compound, second compound 0.316 µM
[3] = curve of first compound, second compound 1 µM
[4] = curve of first compound, second compound 3.16 µM
[5] = curve of first compound, second compound 10 µM
[6] = second compound 0.1 µM, first compound 0.00316 µM
[7] = second compound 0.1 µM, first compound 0.01 µM
[8] = second compound 0.1 µM, first compound 0.0316 µM
[9] = second compound 0.316 µM, first compound 0.00316 µM
[10] = second compound 0.316 µM, first compound 0.01 µM
[11] = second compound 0.316 µM, first compound 0.0316 µM
[12] = second compound 1 µM, first compound 0.00316 µM
[13] = second compound 1 µM, first compound 0.01 µM
[14] = second compound 1 µM, first compound 0.0316 µM
[15] = second compound 3.16 µM, first compound 0.00316 µM
[16] = second compound 3.16 µM, first compound 0.01 µM
[17] = second compound 3.16 µM, first compound 0.0316 µM
[18] = second compound 10 µM, first compound 0.00316 µM
[19] = second compound 10 µM, first compound 0.01 µM
[20] = second compound 10 µM, first compound 0.0316 µM
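Note: spheroids exposed to agents for 7 days.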
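Throughout, for viability, T/C: 100% = DMSO vehicle control viability.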

## CCN1CCN(Cc2ccc(Nc3ncc(F)c(-c4cc(F)c5nc(C)n(C(C)C)c5c4)n3)nc2)CC1 + CC1OCC2(CCN(c3cnc(Sc4ccnc(N)c4Cl)c(N)n3)CC2)C1N
[1]
  pIC50: 7.60
[2]
  pIC50: 7.84
[3]
  pIC50: > 8.50
[4]
  pIC50: > 8.50
[5]
  pIC50: > 8.50
[6]
  viability, T/C: 72.6%
[7]
  viability, T/C: 66.4%
[8]
  viability, T/C: 45.8%
Second compound 0.1 µM, first compound 0.1 µM
  viability, T/C: 46.4%
Second compound 0.1 µM, first compound 0.316 µM
  viability, T/C: 42%
Second compound 0.1 µM, first compound 1 µM
  viability, T/C: 49.7%
[9]
  viability, T/C: 51.3%
[10]
  viability, T/C: 56.5%
[11]
  viability, T/C: 42.1%
Second compound 0.316 µM, first compound 0.1 µM
  viability, T/C: 36.8%
Second compound 0.316 µM, first compound 0.316 µM
  viability, T/C: 35.5%
Second compound 0.316 µM, first compound 1 µM
  viability, T/C: 42.3%
[12]
  viability, T/C: 38.5%
[13]
  viability, T/C: 37.7%
[14]
  viability, T/C: 26.2%
Second compound 1 µM, first compound 0.1 µM
  viability, T/C: 23.4%
Second compound 1 µM, first compound 0.316 µM
  viability, T/C: 26.1%
Second compound 1 µM, first compound 1 µM
  viability, T/C: 35.3%
[15]
  viability, T/C: 18.8%
[16]
  viability, T/C: 15.7%
[17]
  viability, T/C: 14.9%
Second compound 3.16 µM, first compound 0.1 µM
  viability, T/C: 14.7%
Second compound 3.16 µM, first compound 0.316 µM
  viability, T/C: 17.9%
Second compound 3.16 µM, first compound 1 µM
  viability, T/C: 29.5%
[18]
  viability, T/C: 13.7%
[19]
  viability, T/C: 16.3%
[20]
  viability, T/C: 13.9%
Second compound 10 µM, first compound 0.1 µM
  viability, T/C: 10.5%
Second compound 10 µM, first compound 0.316 µM
  viability, T/C: 14.5%
Second compound 10 µM, first compound 1 µM
  viability, T/C: 25.7%

## CC(=O)Nc1cccc(-n2c(=O)n(C3CC3)c(=O)c3c(Nc4ccc(I)cc4F)n(C)c(=O)c(C)c32)c1 + COc1cc2nc(C)nc(NC(C)c3cc(N)cc(C(F)(F)F)c3)c2cc1OC1CCOC1
[1]
  pIC50: 8.80
[2]
  pIC50: 9.02
[3]
  pIC50: 9.15
[4]
  pIC50: 9.15
[5]
  pIC50: 8.96
Second compound 0.1 µM, first compound 0.0001 µM
  viability, T/C: 84.1%
Second compound 0.1 µM, first compound 0.000316 µM
  viability, T/C: 67.3%
Second compound 0.1 µM, first compound 0.001 µM
  viability, T/C: 54.5%
[6]
  viability, T/C: 43.7%
[7]
  viability, T/C: 32.6%
[8]
  viability, T/C: 23.7%
Second compound 0.316 µM, first compound 0.0001 µM
  viability, T/C: 67.8%
Second compound 0.316 µM, first compound 0.000316 µM
  viability, T/C: 59.6%
Second compound 0.316 µM, first compound 0.001 µM
  viability, T/C: 48.9%
[9]
  viability, T/C: 39.6%
[10]
  viability, T/C: 31.9%
[11]
  viability, T/C: 22%
Second compound 1 µM, first compound 0.0001 µM
  viability, T/C: 73.5%
Second compound 1 µM, first compound 0.000316 µM
  viability, T/C: 60.4%
Second compound 1 µM, first compound 0.001 µM
  viability, T/C: 43.5%
[12]
  viability, T/C: 37.4%
[13]
  viability, T/C: 28.5%
[14]
  viability, T/C: 20.8%
Second compound 3.16 µM, first compound 0.0001 µM
  viability, T/C: 73%
Second compound 3.16 µM, first compound 0.000316 µM
  viability, T/C: 57.9%
Second compound 3.16 µM, first compound 0.001 µM
  viability, T/C: 44.6%
[15]
  viability, T/C: 36.3%
[16]
  viability, T/C: 28.7%
[17]
  viability, T/C: 18.4%
Second compound 10 µM, first compound 0.0001 µM
  viability, T/C: 80.7%
Second compound 10 µM, first compound 0.000316 µM
  viability, T/C: 68.2%
Second compound 10 µM, first compound 0.001 µM
  viability, T/C: 49.2%
[18]
  viability, T/C: 36.3%
[19]
  viability, T/C: 26.1%
[20]
  viability, T/C: 12.7%

## CC(=O)Nc1cccc(-n2c(=O)n(C3CC3)c(=O)c3c(Nc4ccc(I)cc4F)n(C)c(=O)c(C)c32)c1
Compound 0.0001 µM
  viability, T/C: 98.3% [middle of 5 runs]
Compound 0.000316 µM
  viability, T/C: 90.7% [middle of 5 runs]
Compound 0.001 µM
  viability, T/C: 76.2% [middle of 5 runs]
Compound 0.00316 µM
  viability, T/C: 57.5% [middle of 5 runs]
Compound 0.01 µM
  viability, T/C: 44.7% [middle of 5 runs]
Compound 0.0316 µM
  viability, T/C: 31.2% [middle of 5 runs]
Curve of compound
  IC50: 5.93 nM [middle of 5 runs]

## COc1cc2nccc(Oc3ccc(NC(=O)C4(C(=O)Nc5ccc(F)cc5)CC4)cc3)c2cc1OC
Compound 0.0316 µM
  viability, T/C: 100% [middle of 5 runs]
Compound 0.1 µM
  viability, T/C: 104% [middle of 5 runs]
Compound 0.316 µM
  viability, T/C: 96.2% [middle of 5 runs]
Compound 1 µM
  viability, T/C: 104% (2×) and 101% (2×) and 99.7%
Compound 3.16 µM
  viability, T/C: 92.9% [middle of 5 runs]
Compound 10 µM
  viability, T/C: 87.7% [middle of 5 runs]
Curve of compound
  pIC50: < 5.00
